Legend:
human Hif1α = experiment: Western analysis of Hif1α protein in HeLaTREx stable clones carrying 2O2_Hif1, doxycycline induction; assay type: cell-based
Description: Cells were directly lysed on 6-well plates in 1× Laemmli sample buffer. Proteins were separated by SDS-PAGE, transferred to PVDF membrane, and western blotting was performed using antibodies against Chk1 (1:200, Santa Crutz Biotechnology, Santa Crutz, Calif. 95060), HIF-1 alpha (1:500, BD Bioscience, Palo Alto, Calif. 94303) or tetR (1:2000, Mo Bi Tec, Germany).
To determine whether the 2O2 promoter retains the ability to respond to doxycycline after integrating into chromosomes, the inventors used a commercial tetR expressing cell line, HeLaTREx, (Invitrogen Corp., Carlsbad, Calif. 92008) to establish stable clones that carried the 2O2 promoter linked to an shRNA targeting human Hif1α (2O2_Hif1).
Using the best-regulated 2O2_Hif1 clone (Hif1-7), the inventors further characterized the time and dose dependency of doxycycline induction of the 2O2 expression system. […] The doxycycline concentration that is required for maximal induction of the 2O2 system was determined in a dose-response experiment.

Hif1α [1] = experiment: Hif1α knockdown in subcutaneous xenograft tumors (QPCR, IHC), doxycycline in drinking water; assay type: in vivo, SCID mice; details: D54_Hif25 tumors, 1 mg/ml doxycycline in drinking water for 3 days
Description: Mice bearing 200-300 mm^3 tumors were supplied with doxycycline (1 mg/ml) for 3, 6, 9 or 12 days. Tumors were collected at the end of treatment and Hif1α mRNA levels were determined by QPCR. Tumors from mice without Dox treatment were used as controls. […] Hif1α mRNA level was determined by QPCR. […] The Hif1α expression level was examined by IHC, and quantified using AxioVision 4 (Zeiss).
To determine whether target knockdown can be induced in xenograft tumors, the D54_Hif25 cells were injected subcutaneously into SCID mice. After tumors reached an average size of 200 mm^3, the mice were supplied with drinking water containing 1 mg/ml doxycycline to induce the expression of Hif1α shRNA. After treating the mice with doxycycline for 3, 6, 9, or 12 days, the tumors were collected and analyzed by QPCR to determine the Hif1α messenger level. […] Examination of the tumor samples by immunohistochemistry indicated a clear reduction of the Hif1α protein from day 3 onward (data not shown).
To determine whether the ability to induce target knockdown would be impaired over long-term doxycycline treatment or when the tumors reach a very large size, further analysis was performed of the knockdown of Hif1α in tumors from mice treated with doxycycline for 45 days. The average tumor size at the end of treatment was 2000 mm^3. […]

[2] = tested on: Hif1 dependent transcriptional activity; experiment: Hif1 reporter (1×HRE) luciferase activity in D54_Hif clones; assay type: cell-based, human; details: D54_Hif25 cells, 1 μg/ml doxycycline, hypoxia
Description: (§1) Cells were incubated in the presence or absence of 1 μg/ml doxycycline. After thirty-six hours, cells were either untreated (N) or subjected to hypoxia treatment (H) for an additional sixteen hours. The cells were lysed and analyzed by western blotting using antibodies against Hif1α (upper panel) or Hif1β (lower panel). […] Cells were transfected with either pGL3-control/pRL-TK (left panel) or 1×HRE/pRL-TK plasmids (right panel) in the presence or absence of 1 μg/ml doxycycline. Thirty-six hours following transfection, cells were subjected to hypoxia treatment. Luciferase activities were determined sixteen hours after hypoxia treatment. […] Cells were incubated in the presence or absence of 1 μg/ml doxycycline. After thirty-six hours, cells were either untreated (N) or subjected to hypoxia treatment (H) for an additional sixteen hours. Total RNA were prepared and used in quantitative PCR for analyzing the level of the indicated genes.
(§2) To assess the potential therapeutic effect of Hif1 inhibition, we established stable cell lines from D54MG parental cells that express an shRNA against Hif1α under the control of doxycycline. A panel of 8 shRNAs against Hif1α was first screened for their abilities to knockdown the target (data not shown), and the best shRNA was selected for the creation of Hif1α knockdown cell lines. […]

Hif1α [3] = experiment: Hif1α protein level (western) in D54_Hif clones with or without doxycycline; assay type: cell-based, human; details: D54_Hif18 cells, 1 μg/ml doxycycline
Description: as §1, §2

tyrosinase = experiment: Tyrosinase knockdown mice by pronuclear injection of 2O2 promoter transgenes; assay type: in vivo; details: mice without tetR expression
Description: Pronuclear injection is a well-established method for creating transgenic animals. In this approach, a DNA fragment (the transgene) is injected into the pronuclear stage of fertilized eggs, and the injected eggs are implanted into pseudopregnant animals. In a typical experiment, 50-80 eggs are injected in which half of the injected eggs will survive to generate neonates and 5%-20% of the neonates will contain the transgene.
Tyrosinase was selected as a target to knockdown. Tyrosinase is a key enzyme in melanin production, and the knockdown of tyrosinase in mice will generate an apparent coat color change.
To determine whether a modified pol III dependent promoter, such as the 2O2 promoter, is suitable for the creation of knockdown animals, transgenes were created that used the 2O2 promoters to express the two best shRNAs against tyrosinase (2O2-Tyr731 (SEQ ID NO: 46) and 2O2-Tyr338 (SEQ ID NO: 47)). These transgenes are shown below. The bold characters represent the shRNA sequences and the underscored characters represent the promoter sequences. […] In mice without tetR expression, the 2O2 promoter is expected to be constitutively active.

## C[C@H]1c2cccc(O)c2C(=O)C2=C(O)[C@]3(O)C(=O)C(C(N)=O)=C(O)[C@@H](N(C)C)[C@@H]3[C@@H](O)[C@@H]21 [doxycycline]
Human Hif1α; clone Hif1-7, 0.1 ng/ml of doxycycline
  inhibition of Hif-1 protein: more than 90%
Human Hif1α; clone Hif1-7, 24 hours after doxycycline treatment
  inhibition of Hif-1 protein: more than 90%
Human Hif1α; clone Hif1-7, dose-response experiment
  doxycycline concentration at which maximal inhibition of Hif1α protein was reached: 10 ng/mL
Hif1α [1]
  reduction of the Hif1α mRNA in tumors: 80%
[2]
  reduction of the Hif1 reporter activity: 80%
Hif1α [3]
  reduction of the Hif1α protein: 80%

B1: 2O2-Tyr731: transgene using the 2O2 promoter to express an shRNA against tyrosinase (SEQ ID NO: 46) (nucleic acid)
DNA: GAATTCCAGGCAAAACGCACCACGTGACGGAGCGTGACCGCGCGCCGAGCGCGCGCCAAGGTCGGGCAGGAAGAGGGCCTATTTCCCATGATTCCATCATATTTGCATATACGATACAAGGCTGTTAGAGAGATAATTAGAATTAATTCGACTGTAAACACAAAGATATTAGTATAAAATACGTGACGTAGAAAGTAATAATTTCTTGGGTAGTTTGCAGTTTTAAAATTATGTTTTAAAATGGACTATCATATGCTTACCGTAACTTGAAACTCCCTATCAGTGATAGAGATTATATATCTCCCTATCAGTGATAGAGACCGTGACATTTGCACAGATGATTCAAGAGATCATCTGTGCAAATGTCACTTTTTTAAGCTT
modifications: 2O2-Tyr731
tyrosinase; three of 20 pups carried the transgene
  coat color of transgene-positive pups: different degrees of coat color change

B2: 2O2-Tyr338: transgene using the 2O2 promoter to express an shRNA against tyrosinase (SEQ ID NO: 47) (nucleic acid)
DNA: GAATTCCAGGCAAAACGCACCACGTGACGGAGCGTGACCGCGCGCCGAGCGCGCGCCAAGGTCGGGCAGGAAGAGGGCCTATTTCCCATGATTCCATCATATTTGCATATACGATACAAGGCTGTTAGAGAGATAATTAGAATTAATTCGACTGTAAACACAAAGATATTAGTATAAAATACGTGACGTAGAAAGTAATAATTTCTTGGGTAGTTTGCAGTTTTAAAATTATGTTTTAAAATGGACTATCATATGCTTACCGTAACTTGAAACTCCCTATCAGTGATAGAGATTATATATCTCCCTATCAGTGATAGAGACCGGCAACTTCATGGGTTTCATTCAAGAGATGAAACCCATGAAGTTGCCTTTTTTAAGCTT
modifications: 2O2 promoter transgene; 2O2-Tyr338
tyrosinase; 40 pups without transgene, two dead embryos with it
  viability of transgene-positive embryos: embryonic lethality
